Data published in patent US6770787B2, “Heavier halogen atom substituted squaraine based dyes, process for the preparation thereof and use thereof as sensitizers for photodynamic, therapeutical and industrial applications” (priority 2001, dated 2004).
Like-named read-outs stand apart in the source and are kept apart here.

Tests used:
[1] = photosensitized singlet oxygen generation in presence and absence of polyvinylpyrrolidone; assay type: physicochemical
From the text: Because triplet excited states were the major transient intermediates obtained upon 532 nm laser flash photolysis studies of bis(3,5-dibromo-2,4,6-trihydroxyphenyl)squaraine and bis(3,5-diiodo-2,4,6-trihydroxyphenyl)squaraine, the efficiency of photosensitized singlet oxygen generation by these systems have been examined, since singlet oxygen is the main cytotoxic agent of the type II reactions in photodynamic therapy. Since singly deprotonated forms of bis(3,5-dibromo-2,4,6-trihydroxyphenyl)squaraine and bis(3,5-diiodo-2,4,6-trihydroxyphenyl)squaraine, have significant triplet yields and have long lifetimes (Ramaiah, D; Joy, A.; Chandrasekhar, N; Eldho, N. V.; Das, S.; George, M. V. Photochem. Photobiol. 1997, 65, 783), moreover these are the forms that are expected to be the predominant species under the biological pH conditions (around 7.4). The first level characterization of these dyes for using them as sensitizers in photodynamic therapy, we have investigated their efficiency of singlet oxygen generation in presence of drug carriers, membrane mimics and microheterogeneous media. Results obtained in presence of polyvinylpyrrolidone (PVP) using bis(3,5-dibromo-2,4,6-trihydroxyphenyl)squaraine and bis(3,5-diiodo-2,4,6-trihydroxyphenyl)squaraine are shown in TABLE 1.

PM2 DNA [2] = assay: plasmid DNA cleavage (DNA relaxation assay, single strand breaks) by dye plus light; assay type: biochemical; settings: for Relative number of single strand breaks (%): SSB in phosphate buffer pH 7.4 without additive = 100%; for fold enhancement in the cleavage of DNA: in D2O
From the text: The mechanism of in vitro photodynamic activity of squaraines has been evaluated in detail by using plasmid DNA (PM2 DNA) and investigating the cleavage of DNA under a variety of conditions. Cleavage of DNA cleavage was followed by monitoring the conversion of supercoiled (Form I) to open circular (Form II) and linear forms (Form III). Induction of one single strand break by a compound/agent converts Form I to Form II and the quantification of these forms by DNA relaxation assay as described previously (Epe, B.; Hegler, J. J. Methods Enzymol. 1994, 234, 122) indicates its efficiency of DNA cleavage. Plasmid DNA cleavage is a very sensitive technique, which can be used to test the various properties of sensitizers and the DNA damage profiles obtained by using scavengers and activators can serve as a kind of fingerprint of the species directly responsible for the damage and also provide the information on the mechanism of in vitro photodynamic activity.
PM2 DNA (10,000 bp, 10 μg/mL) exposed to squaraine dyes plus light from a 1000 W halogen lamp (Philips PF811) at a distance of 33 cm in phosphate buffer (5 mM KH2PO4, 50 mM NaCl, pH 7.4) on ice. The modified DNA was precipitated by ethanol/sodium acetate and quantified the single strand breaks (SSB) by DNA relaxation assay. Superoxide dismutase (SOD) (20 μg/ml), catalase (315 U/ml) were added or the H2O in the buffer was replaced by D2O (the final isotope purity was greater than 96%) to have a better understanding of the active species involved. The results of these studies with representative squaraine based dyes bis(3,5-dibromo-2,4,6-trihydroxyphenyl)squaraine and bis(3,5-diiodo-2,4,6-trihydroxyphenyl)squaraine are shown in TABLE 2.

[3] = stability in the dark in ethanol and phosphate buffer (absorbance change); assay type: physicochemical; settings: for Absorbance: 25° C.
Procedure: (§1) The information about the stability of the sensitizer in presence and absence of light is important for its practical use. Therefore, the stability of these dyes in presence and absence of light in ethanol and phosphate buffer at physiological pH conditions (pH 7.4) at 25° C. was studied by following the absorbance change using spectrophotometry. The results of change in absorbance vs time in the dark with representative squaraine based dyes bis(3,5-dibromo-2,4,6-trihydroxyphenyl)squaraine and bis(3,5-diiodo-2,4,6-trihydroxyphenyl)squaraine are shown in TABLE 3.

[4] = stability under irradiation conditions (photobleaching) in buffer; assay type: physicochemical; settings: for Absorbance: 1000 W halogen lamp; for photobleaching: within 5 min of irradiation, buffer pH 7.4
Procedure: as §1
Compound bis(3,5-diiodo-2,4,6-trihydroxyphenyl)squaraine undergoes very fast photobleaching (nearly 50% within 5 min of irradiation), when compared to bis(3,5-dibromo-2,4,6-trihydroxyphenyl)squaraine (25%). The photobleaching was increased with the time of irradiation in both the cases. While photobleaching might be thought to be disadvantageous property in a tumor photosensitizer, but it has potential benefits since dosage can be adjusted to keep the photosensitizer in tumor at effective levels. Moreover because of their fast photobleaching, a patient after the photodynamic treatment is not required to stay in the dark for long periods of time and if required therapy can be repeated frequently with short intervals of time.

AS52 cells [5] = assay: cell killing efficiency (cytotoxicity) with and without light; assay type: cell-based; settings: for cytotoxicity (cell survival): in the dark; for cell killing efficiency (% of cell survival): under illumination conditions, increasing concentration
Procedure: To measure the cell killing efficiency (cytotoxicity) of squaraine based sensitizers with and without light, AS52 cells were exposed to various concentrations of sensitizer. The light exposure was carried out from a 1000 W halogen lamp at a distance of 33 cm in Ca^2+ and Mg^2+ free PBS (140 mM NaCl, 3 mM KCl, 8 mM Na2HPO4, pH 7.4) on ice (10^6 cells/ml). […] The cells were pelleted by centrifugation and resuspended in PBSG three times. The cells were resuspended at 3×10^4 cells/ml in fresh medium at 37° C. and the number of cells were counted repeatedly for 60 h. From the exponential part of the growth curves (between 24 and 60 h), the number of poliferating cells at the time of resuspension was calculated by extrapolation. Cell survival was defined as the ratio between proliferating and resuspended cells.

AS52 cells [6] = assay: mutagenicity, gpt locus, 6-thioguanine resistant cells; assay type: cell-based
Procedure: The mutagenic properties of squaraine based sensitizers was measured in AS52 cells, which carry the bacterial guanine phosphoribosyltraiisferase (gpt) gene as a selection marker that confers sensitivity to 6-thioguanine. AS52 cells were cultured in cleansing medium containing 11 μg/ml xanthine 219 μg/ml xanthine, 22 μg/ml adenine, 1.2 μg/ml aminopterin and 8.8 μg/ml mycophenolic acid) for one week to eliminate spontaneous gpt mutants. […] During this time, exponential growth of cells was maintained. 2×10^5 cells were diluted in 10 ml culture medium and plated in petri dishes (94 mm) After 2 h, 6-thioguanine was added to each plate (final concentration 2.5 μg/ml) for selection. 200 cells were added in 5 ml culture medium and plated in petri dishes (60 mm) to determine the cloning efficiencies. The plates were incubated for 7 to 9 days. The medium was replaced by NaCl solution (0.9% v/v), the cell colonies were fixed with methanol (−20° C.) for 15 min and stained with Giemsa (10% in H2O) for 15 min. The subsequent quantification of 6-thioguanine resistant cells and the determination of cytotoxicity (ratio of the plating efficiences of treated and untreated cells) directly after exposure to squaraines plus light carried out according to the protocol (Tindall, K. R.; Stankowski Jr. L. F.; Machanoff, R.; Hsie, A. W. Mutat. Res. 1986, 160, 121-131).

AS52 cells [7] = assay: induction of micronuclei; assay type: cell-based
Procedure: Further to understand the genetic effects, the micronuclei induced by bis(3,5-dibromo-2,4,6-trihydroxyphenyl)squaraine and bis(3,5-diiodo-2,4,6-trihydroxyphenyl)squaraine were also quantified in AS52 cells. AS52 cells were exposed to squaraines as described above and resuspended in full medium. After incubation for 24 h at 39° C., approximately 1×10^5 cells were fixed on a microscope slide by cytospin-centrifugation and treatment with methanol for 1 h at −21° C. After staining with bisbenzimide for 3 min in PBS (without Ca2+ and Mg2+), 2000 cells were examined for the presence of micronuclei with a fluorescent microscope.

PM2 DNA [8] = assay: plasmid DNA cleavage (DNA relaxation assay, single strand breaks) by dye plus light; assay type: biochemical; settings: SSB in phosphate buffer pH 7.4 without additive = 100%
[9] = solubility at physiological pH; settings: physiological pH conditions
[10] = buffer pH 7.4, irradiation time 0 min
[11] = buffer pH 7.4, irradiation time 5 min
[12] = buffer pH 7.4, irradiation time 10 min
[13] = buffer pH 7.4, irradiation time 15 min
[14] = buffer pH 7.4, irradiation time 20 min
[15] = buffer pH 7.4, irradiation time 30 min

| Structure (SMILES) | singlet oxygen quantum yields ([1]; PVP 0 mM) | singlet oxygen quantum yields ([1]; PVP 14 mM) | Relative number of single strand breaks (%) (PM2 DNA [2]; Catalase (315 U/mL)) | Relative number of single strand breaks (%) (PM2 DNA [2]; D2O Buffer) | Relative number of single strand breaks (%) (PM2 DNA [2]; SOD (20 g/mL)) | fold enhancement in the cleavage of DNA (PM2 DNA [2]) | Absorbance ([3]; buffer pH 7.4, dark, 0 min) | Absorbance ([3]; buffer pH 7.4, dark, 30 min) | Absorbance ([3]; buffer pH 7.4, dark, 60 min) | Absorbance ([3]; buffer pH 7.4, dark, 90 min) | Absorbance [4, 10] | Absorbance [4, 11] | Absorbance [4, 12] | Absorbance [4, 13] | Absorbance [4, 14] | Absorbance [4, 15] | photobleaching [4] | cytotoxicity (cell survival) (AS52 cells [5]) | cell killing efficiency (% of cell survival) (AS52 cells [5]) | Relative number of single strand breaks (%) (PM2 DNA [8]; PH 7.8) | other results |
| --- | --- | --- | --- | --- | --- | --- | --- | --- | --- | --- | --- | --- | --- | --- | --- | --- | --- | --- | --- | --- | --- |
| O=C1C(Br)=C(O)C(=C2C(=O)C(c3c(O)c(Br)c(O)c(Br)c3O)=C2O)C(O)=C1Br [bis(3,5-dibromo-2,4,6-trihydroxyphenyl)squaraine] | 0.13 ± 0.005 | 0.29 ± 0.001 | 115 ± 5% | 526 ± 28% | 109 ± 5% | Nearly five | 1.84 | 1.72 | 1.65 | 1.61 | 1.8 | 1.35 | 1.30 | 1.25 | 1.17 | 1.10 | 25% | no significant effect | high cell killing efficiency | 105 ± 4% | stability in the dark [3]: very stable; Absorbance ([3]; ethanol, dark, 0 min): 1.90; Absorbance ([3]; ethanol, dark, 30 min): 1.88; Absorbance ([3]; ethanol, dark, 60 min): 1.88; Absorbance ([3]; ethanol, dark, 90 min): 1.88; induction of mutations (6-thioguanine resistant cells) (AS52 cells [6]): do not induce immediate mutations; induction of micronuclei (AS52 cells [7]): do not induce significant amounts of micronuclei; Relative number of single strand breaks (%) (PM2 DNA [8]; pH 7.0): 127 ± 12%; solubility [9]: good solubility |
| O=C1C(I)=C(O)C(=C2C(=O)C(c3c(O)c(I)c(O)c(I)c3O)=C2O)C(O)=C1I [bis(3,5-diiodo-2,4,6-trihydroxyphenyl)squaraine] | 0.47 ± 0.017 | 0.62 ± 0.007 | 92 ± 6% | 614 ± 97% | 100 ± 2% | six fold | 1.35 | 1.47 | 1.38 | 1.36 | 1.72 | 0.87 | 0.74 | 0.65 | 0.58 | 0.47 | ~50% | no significant effect | high cell killing efficiency | 109 ± 22% | increase in efficiency of singlet oxygen generation ([1]; in microheterogeneous media compared with methanol): ~15%; stability in the dark ([3]; buffer solutions at pH 7.4, 90 min): slight bleaching; stability in the dark ([3]; ethanol): very stable; induction of mutations (6-thioguanine resistant cells) (AS52 cells [6]; in presence and absence of light): do not induce immediate mutations; cytotoxicity (ratio of plating efficiencies) (AS52 cells [6]; in presence of light): severe cytotoxicity; induction of micronuclei (AS52 cells [7]; in presence and absence of light, 24 h incubation): do not induce significant amounts of micronuclei; Relative number of single strand breaks (%) (PM2 DNA [8]; pH 7.0): 134 ± 9%; solubility [9]: good solubility |
